Structures can show the parent of a compound that is named as a salt.
System: lipoperoxide produced in brain homogenate
Assay: Inhibitory effect on lipid peroxidation in rat cerebral cortical homogenates (thiobarbituric acid method)
Assay type: biochemical
Conditions: rat cerebral cortical homogenate supernatant, 37° C. for 30 minutes, absorbance at 532 nm
Experimental: Inhibitory Effect on Lipid Peroxidation in Rat Cerebral Cortical Homogenates and Orally Treated Mice
Quantitative determination of lipoperoxide produced in brain homogenate was performed according to the method of Stocks et al. (Clin. Sci. Mol. Med. 47-215(1974)). As animals, brains of Jcl. Wistar male rats, 10-13 weeks age, were used. Rat cerebral cortices were obtained after decapitation, homogenized in an ice-cooled phosphate saline buffer (50 mM Ph 7.4) (Nichion Microhomogenizer, S-310E), centrifuged at 10,000 g for 10 minutes (Hitachi CF15D type, RT15A6 Anglerotor), and the supernatant was used in a test. This supernatant was diluted 3-fold with the same buffer. To this 1 mL were added […] of test drugs dissolved in dimethyl sulfoxide (DMSO) to the final concentration of 0.0125, 0.025, 0.05, 0.10, 0.20, 0.40, 0.80 and 1.60 μM, respectively, which was incubated at 37° C. for 30 minutes. The reaction was stopped by addition of 200 μL of 35% perchloric acid, and centrifuged at 13,000 g for 10 minutes. To 1 mL of this supernatant was added 0.5 mL of 2-thiobarbituric acid (500 mg/100 mL) dissolved in 50% acetic acid, heated to boil at 95° C. for 15 minutes, which was determined by the absorbance at 532 nm. […]

Structure (SMILES) | IC50 [nM]
Cc1c2c(c(C)c3c1NCC3)OC(C)(CN1CCC(NC(c3ccccc3)c3ccccc3)CC1)C2 (centres unmarked) [Example 18, N-(Diphenylmethyl)-1-[(3,5,6,7-tetrahydro-2,4,8-trimethyl-2H-furo[2,3-f]indol-2-yl)methyl]-4-piperidinamine trihydrochloride] | 360
Cc1c2c(c(C)c3c1NCC3)OC(C)(CN1CCC(c3ccccc3)CC1)C2 (centres unmarked) [Example 11, 3,5,6,7-Tetrahydro-2,4,8-trimethyl-2-[(4-phenylpiperidino)methyl]-2H-furo[2,3-f]indole] | 67
